The test system of this assay is MIA PaCa-2 cells. Nature of the assay: In vitro anti-proliferative activity against MIA PaCa-2 cells. It is filed as cell-based. The settings on record: Homo sapiens, viability 72 h after dosing by intracellular ATP content, versus DMSO group. The protocol: Example 50. In Vtro Anti-Proliferative Activity of Compounds of the Present Invention Against MIA PaCa-2 Cells
MIA PaCa-2 cells were seeded on a 96-well plate at 3000 cells/well. After overnight adherence culture, DMSO or the compounds serially diluted 1:5 from […] were added. The viability was assessed 72 h after dosing by measuring the intracellular ATP content. The inhibition percentages of viable cells by the compounds were calculated by comparing with the DMSO group, and the IC50 values were calculated.

As a reminder, the IC50 is the concentration needed to halve the response being measured. Low readings indicate inhibition by little substance, high ones a need for much substance. Turning to `N[C@@H]1c2ccccc2CC12CCN(c1cnc3c(N4CCN5CCCc6cccc4c65)n[nH]c3n1)CC2` [Compound 1], it took 0.0351 µM to reach half-maximal inhibition (IC50).
Consider `N[C@@H]1c2ccccc2CC12CCN(c1cnc3c(N4CCN5C(=O)CCc6cccc4c65)n[nH]c3n1)CC2` [Compound 3], for which it took 0.0051 µM to reach half-maximal inhibition (IC50).
`N[C@@H]1c2ccccc2CC12CCN(c1cnc3c(N4CCn5c(=O)ccc6cccc4c65)n[nH]c3n1)CC2` [Compound 6] displayed an IC50 of 0.0065 µM.
`N[C@@H]1c2ccccc2CC12CCN(c1cnc3c(N4CCN5C(=O)CCc6cc(F)cc4c65)n[nH]c3n1)CC2` [Compound 9] gave an IC50 of 0.0089 µM.
In turn, `N[C@@H]1c2ccccc2CC12CCN(c1cnc3c(N4CCN5C(=O)CCc6c(F)ccc4c65)n[nH]c3n1)CC2` [Compound 10] displayed an IC50 of 0.0121 µM.
In turn, `N[C@@H]1c2cccnc2CC12CCN(c1cnc3c(N4CCN5C(=O)CCc6cccc4c65)n[nH]c3n1)CC2` [Compound 12] displayed an IC50 of 0.0058 µM.
Next, `N[C@@H]1c2cccnc2CC12CCN(c1cnc3c(N4CCn5c(=O)ccc6cccc4c65)n[nH]c3n1)CC2` [Compound 14]: 0.0072 µM.
As for `N[C@@H]1c2cccnc2CC12CCN(c1cnc3c(N4CCN5C(=O)CCc6cc(F)cc4c65)n[nH]c3n1)CC2` [Compound 16], inhibition was half-maximal at 0.0093 µM (IC50).
`NC1c2cccnc2CC12CCN(c1cnc3c(N4CCN5C(=O)CCc6c(F)ccc4c65)n[nH]c3n1)CC2` (stereo not drawn) [Compound 17] registered an IC50 of 0.0108 µM.
Then `N[C@@H]1c2cc(O)ccc2CC12CCN(c1cnc3c(N4CCN5C(=O)CCc6cccc4c65)n[nH]c3n1)CC2` [Compound 21], with 0.0113 µM.
For `COc1cccc2c1CC1(CCN(c3cnc4c(N5CCN6C(=O)CCc7cccc5c76)n[nH]c4n3)CC1)[C@@H]2N` [Compound 24], the IC50 is 0.0096 µM.
Turning to `N[C@@H]1c2ccc(F)nc2CC12CCN(c1cnc3c(N4CCN5C(=O)CCc6cccc4c65)n[nH]c3n1)CC2` [Compound 26], the midpoint of inhibition, the IC50, lay at 0.0081 µM.
In turn, `N[C@@H]1c2ccc(Cl)nc2CC12CCN(c1cnc3c(N4CCN5C(=O)CCc6cccc4c65)n[nH]c3n1)CC2` [Compound 27] displayed an IC50 of 0.0159 µM.
For `N[C@@H]1c2cc(O)ccc2CC12CCN(c1cnc3c(N4CCN5C(=O)CCc6ccc(F)c4c65)n[nH]c3n1)CC2` [Compound 35], the IC50 stood at 0.0173 µM.
The compound `Cc1ccc2c(c1)[C@@H](N)C1(CCN(c3cnc4c(N5CCN6C(=O)CCc7ccc(F)c5c76)n[nH]c4n3)CC1)C2` [Compound 36] displayed an IC50 of 0.0125 µM.
In turn, `N[C@@H]1c2cc(F)ccc2CC12CCN(c1cnc3c(N4CCN5C(=O)CCc6ccc(F)c4c65)n[nH]c3n1)CC2` [Compound 37] displayed an IC50 of 0.0139 µM.
`COc1cccc2c1CC1(CCN(c3cnc4c(N5CCN6C(=O)CCc7ccc(F)c5c76)n[nH]c4n3)CC1)[C@@H]2N` [Compound 38] came in with an IC50 of 0.0156 µM.
For `N[C@@H]1c2cc(O)ccc2CC12CCN(c1cnc3c(N4CCN5C(=O)CCc6cc(F)cc4c65)n[nH]c3n1)CC2` [Compound 40], the concentration for half-maximal inhibition (IC50) is 0.0181 µM.
`Cc1ccc2c(c1)[C@@H](N)C1(CCN(c3cnc4c(N5CCN6C(=O)CCc7cc(F)cc5c76)n[nH]c4n3)CC1)C2` [Compound 41] displayed an IC50 of 0.0135 µM.
`N[C@@H]1c2cc(F)ccc2CC12CCN(c1cnc3c(N4CCN5C(=O)CCc6cc(F)cc4c65)n[nH]c3n1)CC2` [Compound 42] gave an IC50 of 0.0101 µM.
`N[C@@H]1c2cc(O)ccc2CC12CCN(c1cnc3c(N4CCN5C(=O)CCc6c(F)ccc4c65)n[nH]c3n1)CC2` [Compound 45] had an IC50 of 0.0115 µM.
In the case of `Cc1ccc2c(c1)[C@@H](N)C1(CCN(c3cnc4c(N5CCN6C(=O)CCc7c(F)ccc5c76)n[nH]c4n3)CC1)C2` [Compound 46], the IC50 was 0.014 µM.
As for `N[C@@H]1c2cc(F)ccc2CC12CCN(c1cnc3c(N4CCN5C(=O)CCc6c(F)ccc4c65)n[nH]c3n1)CC2` [Compound 47], inhibition was half-maximal at 0.0095 µM (IC50).
Then `COc1cccc2c1CC1(CCN(c3cnc4c(N5CCN6C(=O)CCc7c(F)ccc5c76)n[nH]c4n3)CC1)[C@@H]2N` [Compound 48], with 0.0192 µM.

For the origin of these results see patent US20250059206A1, “FUSED RING COMPOUND ACTING AS SHP2 INHIBITOR” (priority 2021, published 2025).
